We go through 7 compounds from US5637619A, “Antitumor 2-aminocarbonyl-1, 2-bis(methylsulfonyl)-1-(substituted)hydrazines” (Yale University, priority 1995, dated 1997).

Molecules are shown by their SMILES. Like-named read-outs stand apart in the source and are kept apart here. Some results are limits rather than exact numbers.

Series [1] deals with NADPH:cytochrome P450 reductase. Conditions: cited from earlier work.
For series [2], the system named is ribonucleotide reductase. The note with it: cited from earlier work.
Series [3] concerns thioredoxin reductase. Conditions: cited from earlier work.
The subject of series [4] is glutathione reductase. The note with it: cited from earlier work.
The subject of series [5] is M5076 reticulum cell sarcoma. Nature of the series: M5076 reticulum cell sarcoma, sc implanted. It is filed as in vivo, C57BL/6 mice. How it is done: (§1) The M5076 reticulum cell sarcoma was passaged biweekly by sc transfer of tumor fragments into C57BL/6 mice, and the M109 lung carcinoma was similarly passaged in BALB/c mice. The LX-1 human lung carcinoma was passaged sc every two to three weeks in BALB/c-background athymic (nu/nu) mice. For use in these systems, compound III was dissolved in: (a) 100% DMSO and administered by iv injection in a fixed volume of 10 microliters; or (b) DMSO diluted with saline to a final concentration of 10% DMSO and administered iv in a volume of 0.01 milliliter/g of body weight. […] Mitomycin C and cyclophosphamide were dissolved and administered in saline. BCNU and MeCCNU were dissolved in ethanol and diluted 1:9 (v/v) with water prior to administration.
(§2) Five mice per group were employed in experiments with the B16F10 melanoma, and 8 mice per group with the M5076 sarcoma, the M109 carcinoma and the LX-1 carcinoma. A minimum of two dose levels per compound were included in each evaluation and drug therapy was initiated 24 h after tumor implantation for the M5076 sarcoma and M109 carcinoma. In the LX-1 experiment, tumor bearing mice were selected and sorted into treatment and control groups on day 6 post-tumor implant such that all tumor weights ranged from 50-100 mg and median tumor weights per group were reasonably similar. Therapeutic results are presented in terms of: (a) increases in lifespan reflected by the relative median survival time (MST) of treated versus control groups (i.e., %T/C values), and by long-term survivors, and (b) primary tumor growth inhibition (i.e., T-C values) determined by calculating the relative median times for treated (T) and control untreated (C) mice to grow tumors of a 0.5 g size for the LX-1 carcinoma or a 1 g size for the murine neoplasms. Tumor weights were interchangeable with tumor size on the basis of 1 mm^3 =1 mg. […] The activity criterion for tumor inhibition was a delay in tumor growth consistent with one log10 cell kill (LCK). The absolute T-C value needed to attain this level of efficacy varied from experiment to experiment and depended upon the tumor volume doubling time of the control mice in each study. Treated mice dying prior to day 10 in the ip M109 experiment, or dying before their tumors achieved 0.5 g for the LX-1 carcinoma or 1 g in size for all other sc tumor models, were considered to have died from drug toxicity. Groups of mice with more than one death due to drug toxicity were not used in the evaluation of antitumor efficacy. Statistical evaluations of data were performed using Gehan's generalized Wilcoxan test (Gehan, Biometrika, 1965, 52, 203-233).
Compound III was also evaluated against the M5076 reticulum cell sarcoma implanted sc. When administered iv at a level of 48 mg/kg per injection in 100% DMSO every other day for five days, compound III cured 6 out of 8 mice and consequently, no median time (T-C value) to reach 1 gram size tumors was expressed for this group. Tumor growth in mice receiving only 100% DMSO was indistinguishable from that of untreated control animals. 1-(2-Chloroethyl)-3-(4-methylcyclohexyl)-1-nitrosourea (MeCCNU) and BCNU were included in this experiment for comparison. The former achieved a maximum %T/C of 128 and a delay in tumor growth of 33.5 days at 16 mg/kg per injection administered iv every fourth day for three total injections, while BCNU, administered iv on the same treatment schedule, produced a %T/C in excess of 157, with 2 out of 8 cures, and a T-C of >62 days (data not shown).

For series [6], the system named is liver microsomal enzymes. The note with it: NADPH-dependent; cited from earlier work.
Series [7] concerns glutathione S-transferase mu isoenzymes. Conditions: human isoenzymes; cited from earlier work.
For series [8] the test system is unchanged. The note with it: rat isoenzymes; cited from earlier work.
The test system of series [9] is LX-1 human lung carcinoma. The series can be described thus: LX-1 human lung carcinoma xenograft, sc in athymic mice. It is filed as in vivo, human tumor in athymic (nu/nu) mice. The note with it: 20 mg/kg per injection (optimum), iv every fourth day × 3. How it is done: as §1, §2
The human lung tumor, LX-1, xenografted sc in athymic mice, was also used to examine the antineoplastic potential of compound III. […]

In series [10] the test system is M109 lung carcinoma. The note with it: 60 mg/kg per injection, highest dosage level, ip q4d × 3; different experiment; cited from earlier work.
The subject of series [11] is M109 lung carcinoma. Conditions: as reported earlier (J. Med. Chem. 1993, 36, 3496); cited from earlier work.
In series [12] the test system is M5076 reticulum cell sarcoma. Conditions: compared with compound III or BCNU; cited from earlier work.
The test system of series [13] is mammary MX-1 human tumor xenografts. The note with it: subrenal capsule, athymic mice; cited from earlier work.
For series [14], the system named is colon CX-1 human tumor xenografts. Conditions: subrenal capsule, athymic mice; cited from earlier work.
The conditions of series [15]: chloroethylating agent with no carbamoylating activity; cited from earlier work.
The test system of series [16] is L1210 leukemia. The series can be described thus: L1210 leukemia survival time in mice (ip implanted). It is filed as in vivo, mice (CD2F1). The method, then:
(§3) Leukemia L1210 cells were obtained from the Frederick Cancer Research Facility, Division of Cancer Treatment Tumor Repository of the National Cancer Institute, and were maintained by serial passage in tissue culture. Every 8 weeks, tumor cells were injected intraperitoneally into five donor CD2 F1 mice 8- to 10- weeks of age and were allowed to grow for 7 days. The peritoneal fluid was withdrawn and the suspension was centrifuged for 5 min at 1600 g. The supernatant was decanted and 10^5 cells/mL were seeded into 10 mL of RPMI 1640 medium supplemented with 10% fetal bovine serum and 1% L-glutamine, and once again maintained in culture. To assay for antineoplastic activity, 0.1 mL of the cell suspension containing 10^5 L1210 leukemia cells was injected ip into each recipient mouse. Test compounds were administered over a wide range of dosage levels, beginning 24 h after tumor implantation, and continued once daily for 6 consecutive days. All drugs were administered ip as a solution in 100% dimethylsulfoxide (DMSO), in a volume not exceeding 0.025 mL. […] Mice were weighed during the course of the experiments, and the percentage change in body weight from onset to termination of therapy was used as an indication of drug toxicity. Determination of the sensitivity of neoplasms to these agents was based upon the prolongation of survival time afforded by the drug treatments.
(§4) ^a Administered ip once daily for six consecutive days, beginning 24 hours after tumor implantation, with 5-10 mice being used per group. ^b Average percent change in body weight from onset to termination of therapy. ^c % T/C=average survival time of treated/control mice×100; cures (>60-day survivors) are listed separately and are not included in this calculation.

For series [17], the system named is B16F10 melanoma. Nature of the series: B16F10 melanoma, tumor growth delay in mice. It is filed as in vivo, C57BL/6 mice. The note with it: 100% DMSO. How it is done:
B16F10 melanoma cells were grown in vitro as monolayers in minimum essential medium with Hank's salts supplemented with 10% fetal bovine serum and 1% 200 mM L-glutamine solution. Solid tumors were produced in C57BL/6 female mice 12- to 14-weeks of age by the intradermal injection in the right flank of each mouse of 0.1 mL of a cell suspension containing 10^6 B16F10 cells/mL from freshly trypsinized cultures. After 10-12 days, animals bearing approximately 100 mm^3 tumors were treated ip with compound III or IV dissolved in 100% DMSO for 6 consecutive days, and tumor volumes were measured on alternate days until reaching 1000 mm^3.
as §2
In addition, both compounds III and IV were evaluated in 100% DMSO against the B16F10 melanoma implanted intradermally (id) in mice (Table III). In an initial experiment, compound IV produced a T-C of 15.5 days at a daily dosage level of 20 mg/kg administered once daily for six consecutive days beginning on day 10 post-implant. In the same experiment, using the same treatment schedule, a growth delay of 11 days was obtained with compound III. […] Thus, the aminocarbonyl component in this class of agents influences the magnitude of the antitumor effects obtained against the B16F10 melanoma.

The nature of series [18]: Body weight change / toxicity in L1210-bearing mice. It is filed as in vivo, mice (CD2F1). Conditions: for Av. Wt. Change %: L1210-bearing mice. How it is done: as §3, §4
[19] abbreviates: iv every fourth day × 3 (same treatment schedule as MeCCNU).
[20] abbreviates: 16 mg/kg per injection, iv every fourth day × 3.

As for `O=NN(CCCl)C(=O)NC1CCCCC1` [CCNU, 1-(2-chloroethyl)-3-cyclohexyl-1-nitrosourea], in [1], the “denitrosation (in words)” value is recorded as “catalyzed by NADPH:cytochrome P450 reductase”.
Regarding `O=NN(CCCl)C(=O)NCCCl` [BCNU, 1,3-bis(2-chloroethyl)-1-nitrosourea], the “inhibition of ribonucleotide reductase (in words)” value in series [2] is recorded as “inhibit glutathione reductase, ribonucleotide reductase”. Besides, in series [3], the “inhibition of thioredoxin reductase (in words)” value was “inhibit glutathione reductase, ribonucleotide reductase and thioredoxin reductase”. For the same compound, the “inhibition of glutathione reductase (in words)” value in series [4] is reported as “inhibit glutathione reductase”. Further, in series [5] (setting [19]), the “%T/C” value is over 157%, the T-C is over 62 days and the cures is given as 2 out of 8. Moreover, in [6], the “inactivation by denitrosation (in words)” value was “inactivated by denitrosation by liver microsomal enzymes”. The “glutathione-dependent denitrosation (in words)” value in series [7] was “undergo glutathione-dependent denitrosation”. Further, the “glutathione-dependent denitrosation (in words)” value in series [8] is reported as “undergo glutathione-dependent denitrosation”. For the same compound, in series [9], the T-C stood at 11.8 days and the “log10 cell kill (LCK)” value turned out to be 1.3 LCK.
On to `CC(=O)N(N(CCCl)S(C)(=O)=O)S(C)(=O)=O` [X], for which the “%T/C (median survival time)” value in series [10] was 231%. Moreover, in [11], the “maximum %T/C” value was 136% and the “maximum T-C value” is 14.5 days. In [12], the “activity against M5076 (in words)” value is listed as “much less active than compound III or BCNU”.
With `CC1CCC(NC(=O)N(CCCl)N=O)CC1` (centres unmarked) [MeCCNU, 1-(2-Chloroethyl)-3-(4-methylcyclohexyl)-1-nitrosourea], in [5] (setting [20]), the “delay in tumor growth (T-C)” value is 33.5 days and the “maximum %T/C” value is listed as 128%.
On to `CNC(=O)ON(C(C)=O)C(=O)NC` [Caracemide], for which the “antitumor activity (in words)” value in series [13] and in [14] was “active” each time.
With `CS(=O)(=O)CS(=O)(=O)OCCCl` [clomesone], the “antineoplastic activity (in words)” value in series [15] is “excellent antineoplastic activity”.
On to `CNC(=O)N(N(CCCl)S(C)(=O)=O)S(C)(=O)=O` [Compound IV, 1,2-Bis(methylsulfonyl)-1-(2-chloroethyl)-2-methylaminocarbonylhydrazine], for which the “% 60 Day Survivors (cures)” value in series [16] (5 mg/kg ip once daily × 6) is listed as 40%; in series [16] (10 mg/kg ip once daily × 6) it was 100%; in [16] (15 mg/kg ip once daily × 6) it was 100%. In series [16] (5 mg/kg ip once daily × 6, cures not included), the “%T/C (average survival time treated/control × 100)” value is given as 234%. Besides, in series [16] (qualitative, L1210 leukemia in mice), the “antileukemic activity / therapeutic potential (in words)” value was “much better therapeutic potential than the amino acid ester derivatives”. For the same compound, the T-C in series [17] (experiment a, 10 mg/kg/injection, qd × 6 from day 10, ip) was 5.0 days; in [17] (experiment b, 20 mg/kg/injection, qd × 6 from day 12, ip) it was 10.0 days. Further, the “T-C, growth delay” value in series [17] (experiment a, 20 mg/kg/injection, qd × 6 from day 10, ip) came out at 15.5 days; in [17] (experiment b, 30 mg/kg/injection, qd × 6 from day 12, ip) it was 25.5 days. The “Av. Wt. Change %” value in [18] (5 mg/kg ip once daily × 6) was “+9.9%”; in series [18] (10 mg/kg ip once daily × 6), -5.6%; in [18] (15 mg/kg ip once daily × 6), -2.1%. The “body weight loss (in words)” value in [18] (5 mg/kg × 6) was “no body weight loss”. In addition, the “loss of body weight” value in series [18] (10 and 15 mg/kg × 6) is recorded as under 6%.
